This note sets out measurements from US9670227B2, “Thienopyrimidine derivatives, a process for their preparation and pharmaceutical compositions containing them” (LES LABORATOIRES SERVIER, priority 2013, dated 2017).

Chain of Mcl-1 protein (Q07820 whole entry): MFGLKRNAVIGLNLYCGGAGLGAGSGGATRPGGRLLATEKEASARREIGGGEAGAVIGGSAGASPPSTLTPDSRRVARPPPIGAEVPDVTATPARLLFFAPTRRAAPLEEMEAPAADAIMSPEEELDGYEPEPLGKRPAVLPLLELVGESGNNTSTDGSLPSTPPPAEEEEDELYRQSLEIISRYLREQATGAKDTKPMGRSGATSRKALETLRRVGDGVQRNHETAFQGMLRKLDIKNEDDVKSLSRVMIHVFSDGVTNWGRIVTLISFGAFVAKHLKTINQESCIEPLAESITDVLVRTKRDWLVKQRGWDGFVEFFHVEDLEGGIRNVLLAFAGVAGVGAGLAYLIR

One experiment addresses Mcl-1 protein (UniProtKB primary accession number: Q07820) (Homo sapiens, UniProt Q07820). The experiment can be described thus: Inhibition of Mcl-1 by fluorescence polarisation, Method 1. Conditions: fluorescence polarisation test; Method 1, or Method 2 where the value is underlined (underlining not visible); read-out: IC50 (M) Mcl-1 FP. Format: binding. An outline of the steps:
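Buffer of 10 mM HEPES pH 7.4 with 150 mM NaCl and 0.05% Tween 20 held 5 nM Mcl-1 and 1 nM fluorescein-tagged ligand (final). Compounds were tested as 11-point serial dilutions at 5% final DMSO, and binding was read by FP.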
(Fluorescence polarisation rises when a labelled molecule tumbles more slowly, as on binding a larger partner.)
For orientation: IC50 means the concentration that gives 50% inhibition. With `COc1ccccc1-c1nccc(COc2ccccc2CC(Oc2ncnc3sc(-c4ccc(F)cc4)c(-c4ccc(OC)c(Cl)c4C)c23)C(=O)O)n1` [Example 841, (2R)-2-{[(5Sa)-5-(3-chloro-4-methoxy-2-methylphenyl)-6-(4-fluorophenyl)thieno[2,3-d]pyrimidin-4-yl]oxy}-3-(2-{[2-(2-methoxyphenyl)pyrimidin-4-yl]methoxy}phenyl)propanoic acid], the half-inhibitory concentration (IC50) came out at 4.8e-09 M.

Still in this experiment, the particulars now being: fluorescence polarisation test; Method 2 values are underlined in the patent (underlining not visible here); read-out: IC50 (M) Mcl-1 FP.
For the molecule `Cc1c(-c2c(-c3ccc(F)o3)sc3ncnc(OC(Cc4ccccc4OCc4ccnn4C(C)C)C(=O)O)c23)ccc(OCCN2CCN(C)CC2)c1Cl` [Example 182, (2R)-2-{[(5Sa)-5-{3-chloro-2-methyl-4-[2-(4-methylpiperazin-1-yl)ethoxy]phenyl}-6-(5-fluorofuran-2-yl)thieno[2,3-d]pyrimidin-4-yl]oxy}-3-(2-{[1-(propan-2-yl)-1H-pyrazol-5-yl]methoxy}phenyl)propanoic acid], the IC50 came to 4.4e-09 M.

Regarding `Cc1c(-c2c(-c3ccc(F)o3)sc3ncnc(OC(Cc4ccccc4OCC(F)(F)F)C(=O)O)c23)ccc(OCCN2CCN(C)CC2)c1Cl` [Example 158, (2R)-2-{[(5Sa)-5-{3-chloro-2-methyl-4-[2-(4-methylpiperazin-1-yl)ethoxy]phenyl}-6-(5-fluorofuran-2-yl)thieno[2,3-d]pyrimidin-4-yl]oxy}-3-[2-(2,2,2-trifluoroethoxy)phenyl]propanoic acid], the 50% inhibitory concentration (IC50) came to 4.6e-09 M.

Consider `Cc1c(-c2c(-c3ccc(F)cc3)sc3ncnc(OC(Cc4ccccc4OCc4cnccn4)C(=O)O)c23)ccc(OCCN2CCN(C)CC2)c1Cl` [Example 91, (2R)-2-{[(5Sa)-5-{3-chloro-2-methyl-4-[2-(4-methylpiperazin-1-yl)ethoxy]phenyl}-6-(4-fluorophenyl)thieno[2,3-d]pyrimidin-4-yl]oxy}-3-[2-(pyrazin-2-ylmethoxy)phenyl]propanoic acid], for which the half-inhibitory concentration (IC50) was determined as 7.3e-09 M.

For the molecule `Cc1c(-c2c(-c3ccco3)sc3ncnc(O[C@@H](C(=O)O)[C@@H](O)c4ccccc4)c23)ccc(OCCN2CCN(C)CC2)c1Cl` (single isomer, unassigned) [Example 342], the IC50 amounted to 3.5e-07 M.

As for `Cc1c(-c2c(-c3ccc(F)cc3)sc3ncnc(OC(Cc4ccccc4OCc4ccnc(-c5ccccn5)n4)C(=O)O)c23)ccc(OCCN2CCN(C)CC2)c1Cl` [Example 31, (2R)-2-{[(5Sa)-5-{3-chloro-2-methyl-4-[2-(4-methylpiperazin-1-yl)ethoxy]phenyl}-6-(4-fluorophenyl)thieno[2,3-d]pyrimidin-4-yl]oxy}-3-(2-{[2-(pyridin-2-yl)pyrimidin-4-yl]methoxy}phenyl)propanoic acid], the concentration for half-maximal inhibition (IC50) turned out to be 5.6e-09 M.

In the case of `COc1ccccc1CC(Oc1ncnc2sc(-c3ccc(F)cc3)c(-c3ccc(OCCN4CCN(C)CC4)c(Cl)c3C)c12)C(=O)O` [Example 1, (2R)-2-{[(5Sa)-5-{3-chloro-2-methyl-4-[2-(4-methylpiperazin-1-yl)ethoxy]phenyl}-6-(4-fluorophenyl)thieno[2,3-d]pyrimidin-4-yl]oxy}-3-(2-methoxyphenyl)propanoic acid], the IC50 worked out at 8e-08 M.

In the case of `COc1ccccc1CC(Oc1ncnc2sc(-c3ccco3)c(-c3ccc(OCCC4CN(C)CCO4)c(Cl)c3C)c12)C(=O)O` (single isomer, unassigned) [Example 318], the IC50 turned out to be 3e-08 M.

The experiment is the same for the next values; noted with them: fluorescence polarisation; Method 1, or Method 2; read-out: IC50 (M) Mcl-1 FP.
Consider `COCCCc1sc2ncnc(OC(Cc3ccccc3OCc3ccnc(OC)n3)C(=O)O)c2c1-c1ccc(OCCN2CCN(C)CC2)c(Cl)c1C` [Example 599, (2R)-2-{[(5Sa)-5-{3-chloro-2-methyl-4-[2-(4-methylpiperazin-1-yl)ethoxy]phenyl}-6-(3-methoxypropyl)thieno[2,3-d]pyrimidin-4-yl]oxy}-3-{2-[(2-methoxypyrimidin-4-yl)methoxy]phenyl}propanoic acid], for which the IC50 was found to be 1.1e-08 M.

Consider `Cc1c(-c2c(-c3ccco3)sc3ncnc(OC(Cc4ccccc4OCc4ccccn4)C(=O)O)c23)ccc(O)c1Cl` [Example 674, (2R)-2-{[(5Sa)-5-(3-chloro-4-hydroxy-2-methylphenyl)-6-(furan-2-yl)thieno[2,3-d]pyrimidin-4-yl]oxy}-3-[2-(pyridin-2-ylmethoxy)phenyl]propanoic acid], for which the IC50 is 2.1e-08 M.

Consider `COc1ccccc1CC(Oc1ncnc2sc(-c3cccnc3)c(-c3ccc(OCCN4CCN(C)CC4)c(Cl)c3C)c12)C(=O)O` [Example 567, (2R)-2-{[(5Sa)-5-{3-chloro-2-methyl-4-[2-(4-methylpiperazin-1-yl)ethoxy]phenyl}-6-(pyridin-3-yl)thieno[2,3-d]pyrimidin-4-yl]oxy}-3-(2-methoxyphenyl)propanoic acid], for which the half-maximal inhibitory concentration (IC50) is 2.1e-08 M.

`COc1ccccc1CC(Oc1ncnc2sc(-c3ccc(C(=O)N(C)C)o3)c(-c3ccc(OCCN4CCN(C)CC4)c(Cl)c3C)c12)C(=O)O` [Example 582, (2R)-2-[((5Sa)-5-{3-chloro-2-methyl-4-[2-(4-methylpiperazin-1-yl)ethoxy]phenyl}-6-[5-(dimethylcarbamoyl)furan-2-yl]thieno[2,3-d]pyrimidin-4-yl)oxy]-3-(2-methoxyphenyl)propanoic acid]: the half-maximal inhibitory concentration (IC50) is 8.4e-08 M.

As to `CCc1sc2ncnc(OC(Cc3ccccc3)C(=O)O)c2c1-c1cccc(O)c1C` [Example 452, (2R)-2-{[6-ethyl-(5Sa)-5-(3-hydroxy-2-methylphenyl)thieno[2,3-d]pyrimidin-4-yl]oxy}-3-phenylpropanoic acid and (2S)-2-{[6-ethyl-(5Ra)-5-(3-hydroxy-2-methylphenyl)thieno[2,3-d]pyrimidin-4-yl]oxy}-3-phenylpropanoic acid], the half-inhibitory concentration (IC50) came to 3e-07 M.

For the molecule `CCc1sc2ncnc(OC(Cc3ccccc3)C(=O)O)c2c1-c1cc([N+](=O)[O-])c(O)c(Cl)c1C` [Example 426, (2R)-2-{[(5Sa)-5-(3-chloro-4-hydroxy-2-methyl-5-nitrophenyl)-6-ethylthieno[2,3-d]pyrimidin-4-yl]oxy}-3-phenylpropanoic acid], the 50% inhibitory concentration (IC50) was 4.6e-09 M.

As to `CCc1sc2ncnc(O[C@@H](Cc3ccccc3OC)C(=O)O)c2c1-c1ccc(O)c(Cl)c1C` (single isomer, unassigned) [Example 680], the IC50 came out at 2.8e-05 M.

Take `COc1ccccc1CC(Oc1ncnc2sc(-c3ccc(Br)o3)c(-c3ccc(OCCN4CCN(C)CC4)c(Cl)c3C)c12)C(=O)O` [Example 577, (2R)-2-{[6-(5-bromofuran-2-yl)-(5Sa)-5-{3-chloro-2-methyl-4-[2-(4-methylpiperazin-1-yl)ethoxy]phenyl}thieno[2,3-d]pyrimidin-4-yl]oxy}-3-(2-methoxyphenyl)propanoic acid]: the IC50 was determined as 7.6e-09 M.

Take `COc1ccccc1C[C@@H](Oc1ncnc2sc(-c3ccc(F)cc3)c(-c3ccc(CCCN4CCN(C)CC4)c(Cl)c3C)c12)C(=O)O` (single isomer, unassigned) [Example 653]: the concentration for half-maximal inhibition (IC50) turned out to be 1.6e-08 M.

`CCc1sc2ncnc(O[C@H](Cc3ccccc3OC)C(=O)O)c2c1-c1ccc(O)c(Cl)c1C` (single isomer, unassigned) [Example 682]: the IC50 was found to be 5.1e-07 M.

`COc1ccccc1CC(Oc1ncnc2sc(-c3ccc(C(OC)OC)o3)c(-c3ccc(OCCN4CCN(C)CC4)c(Cl)c3C)c12)C(=O)O` [Example 542, (2R)-2-[((5Sa)-5-{3-chloro-2-methyl-4-[2-(4-methylpiperazin-1-yl)ethoxy]phenyl}-6-[5-(dimethoxymethyl)furan-2-yl]thieno[2,3-d]pyrimidin-4-yl)oxy]-3-(2-methoxyphenyl)propanoic acid]: the 50% inhibitory concentration (IC50) was 4.3e-07 M.

For `CCc1sc2ncnc(O[C@@H](Cc3cccc4ccoc34)C(=O)O)c2c1-c1ccc(OCCN2CCN(C)CC2)c(Cl)c1C` [Example 462, (2S)-3-(1-benzofuran-7-yl)-2-[((5Ra)-5-{3-chloro-2-methyl-4-[2-(4-methylpiperazin-1-yl)ethoxy]phenyl}-6-ethylthieno[2,3-d]pyrimidin-4-yl)oxy]propanoic acid], the half-maximal inhibitory concentration (IC50) worked out at 3.7e-05 M.

Take `CCc1sc2ncnc(OC(Cc3ccccc3)C(=O)O)c2c1-c1ccc(OCCO)c(Cl)c1C` [Example 423, (2R)-2-({(5Sa)-5-[3-chloro-4-(2-hydroxyethoxy)-2-methylphenyl]-6-ethylthieno[2,3-d]pyrimidin-4-yl}oxy)-3-phenylpropanoic acid]: the IC50 was 5.3e-08 M.

As for `COc1ccccc1CC(Oc1ncnc2sc(-c3ccsc3)c(-c3ccc(O)c(Cl)c3C)c12)C(=O)O` [Example 715, (2R)-2-{[(5Sa)-5-(3-chloro-4-hydroxy-2-methylphenyl)-6-(thiophen-3-yl)thieno[2,3-d]pyrimidin-4-yl]oxy}-3-(2-methoxyphenyl)propanoic acid], the IC50 is 1.6e-09 M.

For the molecule `COC(=O)c1ccc(-c2sc3ncnc(OC(Cc4ccccc4OC)C(=O)O)c3c2-c2ccc(OCCN3CCN(C)CC3)c(Cl)c2C)o1` [Example 583, (2R)-2-[((5Sa)-5-{3-chloro-2-methyl-4-[2-(4-methylpiperazin-1-yl)ethoxy]phenyl}-6-[5-(methoxycarbonyl)furan-2-yl]thieno[2,3-d]pyrimidin-4-yl)oxy]-3-(2-methoxyphenyl)propanoic acid], the IC50 was found to be 1.1e-07 M.

Staying with this experiment, now noted: test compound at 10 uM; Method 1, or Method 2 where the value is underlined (underlining not visible).
For `CCOC(=O)[C@@H](Cc1ccccc1OCc1ccnc(-c2ccccc2F)n1)Oc1ncnc2sc(-c3ccc(F)cc3)c(-c3ccc(OCCN(C)C)c(Cl)c3C)c12` [Example 807, ethyl (2R)-2-{[(5Sa)-5-{3-chloro-4-[2-(dimethylamino)ethoxy]-2-methylphenyl}-6-(4-fluorophenyl)thieno[2,3-d]pyrimidin-4-yl]oxy}-3-(2-{[2-(2-fluorophenyl)pyrimidin-4-yl]methoxy}phenyl)propanoate], the “percentage fluorescence polarisation inhibition (Mcl-1 FP), partial inhibitors” value was determined as 52.45% @ 10 uM.
